US9353107B2 (Aurigene Discovery Technologies Limited, priority 2012, dated 2016)

Target: T1, recombinant human ALK enzyme (ALK WT) (Homo sapiens, UniProt Q9UM73)
T1 construct: purchased Carna Biosciences 08-518
Assay: ALK WT cell free enzymatic assay (TR-FRET)
Assay type: biochemical
Settings: 1 μM ATP; for IC50: 10 point dose response; for inhibition at 0.1 µM: compound at 100 nM; for inhibition at 0.1 µM / inhibition at 1 µM: 30 min pre-incubation; for inhibition at 1 µM: compound at 1 μM
Protocol: ALK Wild Type (WT) The ALK WT cell free assay was set up to evaluate the effects of these compounds as inhibitors of ALK enzyme. The enzymatic assay was standardized using recombinant human ALK enzyme (Cat#08-518) from Carna Biosciences using Ultra Light Poly GT (Cat# TRF 0100D) from Perkin Elmer as a substrate. TR-FRET (Time resolved fluorescence resonance energy transfer) detection technology was used for the read out. The final assay conditions were 50 mM HEPES pH 7.1, 10 mM MgCl2, 2 mM MnCl2, 0.01% BSA, 2.5 mM DTT, 0.1 mM Na3 VO4, 40 nM Ultra Light Poly GT, 2.5 ng ALK WT enzyme, 1 μM ATP and 125 nM Lance Eu-W1024 labeled anti phospho tyrosine antibody (Cat# AD0203, Perkin Elmer) in 384 well format. The assay reaction time with the substrate was 30 minutes after which the antibody detection mix is added. The TR-FRET signal (Excitation at 340 nm, Emission at 615 nm and 665 nm) was read with 50 μs delay time on Victor^3 V fluorimeter. The data is calculated using the ratio of reading at 665 nM to 615 nM. The final concentration of DMSO was 1% in the assay. Compounds were screened at 100 nM and 1 μM concentrations with pre-incubation of the enzymes with compound for 30 minutes. Each individual IC50 was determined using 10 point dose response curve generated by GraphPad Prism software Version 4 (San Diego, Calif., USA) using non linear regression curve fit for sigmoidal dose response (variable slope). Percentage inhibition at concentrations of 100 nM and 1.0 μM are given in table along with the IC50 (nM) details for selected examples.

T1 sequence (Q9UM73 1058-1620 limits assumed): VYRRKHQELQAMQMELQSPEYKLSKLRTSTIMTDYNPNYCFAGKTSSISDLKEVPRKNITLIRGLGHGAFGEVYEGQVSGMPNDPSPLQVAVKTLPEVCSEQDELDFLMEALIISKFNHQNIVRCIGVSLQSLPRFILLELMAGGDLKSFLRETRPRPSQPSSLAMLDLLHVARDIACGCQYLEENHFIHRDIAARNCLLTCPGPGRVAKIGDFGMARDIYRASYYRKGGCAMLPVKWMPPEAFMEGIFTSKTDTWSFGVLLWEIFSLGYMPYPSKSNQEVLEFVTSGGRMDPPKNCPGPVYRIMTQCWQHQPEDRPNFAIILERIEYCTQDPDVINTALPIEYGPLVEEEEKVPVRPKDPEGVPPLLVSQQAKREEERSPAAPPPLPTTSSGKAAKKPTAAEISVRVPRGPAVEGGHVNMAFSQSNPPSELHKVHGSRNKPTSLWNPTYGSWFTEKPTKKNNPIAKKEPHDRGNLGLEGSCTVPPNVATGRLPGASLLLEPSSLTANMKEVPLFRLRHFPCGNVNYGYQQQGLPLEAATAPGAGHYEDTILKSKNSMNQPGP

Structure (SMILES)	IC50	inhibition at 0.1 µM	inhibition at 1 µM
COc1ccc(-c2cnc3[nH]cc(-c4cnn(CCc5ccc(F)cc5)c4)c3c2)cc1NS(C)(=O)=O [Example 76, N-(5-(3-(1-(4-fluorophenethyl)-1H-pyrazol-4-yl)-1H-pyrrolo[2,3-b]pyridin-5-yl)-2-methoxyphenyl)methanesulfonamide]	50 to 250 nM	32%	94%
Fc1ccc(F)c(Cn2cc(-c3c[nH]c4ncc(-c5cccc(N6CCNCC6)c5)cc34)cn2)c1 [Example 32, 3-(1-(2,5-difluorobenzyl)-1H-pyrazol-4-yl)-5-(3-(piperazin-1-yl)phenyl)-1H-pyrrolo[2,3-b]pyridine]	< 50 nM		99%
COc1ccc(-c2cnc3[nH]cc(-c4cnn(Cc5cc(F)ccc5F)c4)c3c2)cc1NS(C)(=O)=O [Example 70, N-(5-(3-(1-(2,5-difluorobenzyl)-1H-pyrazol-4-yl)-1H-pyrrolo[2,3-b]pyridin-5-yl)-2-methoxyphenyl)methanesulfonamide]	< 50 nM	91%	99%
Cc1nn(Cc2cccc(F)c2)c(C)c1-c1c[nH]c2ncc(-c3ccc(N4CCN(C)CC4)cc3)cc12 [Example 56, 3-(1-(3-fluorobenzyl)-3,5-dimethyl-1H-pyrazol-4-yl)-5-(4-(4-methylpiperazin-1-yl)phenyl)-1H pyrrolo[2,3-b]pyridine]	< 50 nM	91%	100%
CS(=O)(=O)Nc1cccc(-c2cnc3[nH]cc(-c4cnn(Cc5cccc(F)c5)c4)c3c2)c1 [Example 9, N-(3-(3-(1-(3-fluorobenzyl)-1H-pyrazol-4-yl)-1H-pyrrolo[2,3-b]pyridin-5-yl)phenyl)methanesulfonamide]	< 50 nM		98%
CS(=O)(=O)Nc1cc(-c2cnc3[nH]cc(-c4cnn(Cc5cccc(F)c5)c4)c3c2)ccc1F [Example 78, N-(2-fluoro-5-(3-(1-(3-fluorobenzyl)-1H-pyrazol-4-yl)-1H-pyrrolo[2,3-b]pyridin-5-yl)phenyl) methanesulfonamide]	< 50 nM	100%	101%
CC(C)(C)OC(=O)N1CCN(c2cccc(-c3cnc4[nH]cc(-c5cnn(Cc6cc(F)ccc6F)c5)c4c3)c2)CC1 [Example 31, tert-butyl 4-(3-(3-(1-(2,5-difluorobenzyl)-1 h-pyrazol-4-yl)-1 h-pyrrolo[2,3-b]pyridin-5-yl)phenyl)piperazine-1-carboxylate]	> 250 nM		55%

The remaining lines, values ahead:

IC50	inhibition at 0.1 µM	inhibition at 1 µM	Structure (SMILES)
< 50 nM	77%	93%	O=C(C1CC1)N1CCN(c2ccc(-c3cnc4[nH]cc(-c5cnn(Cc6cccc(F)c6)c5)c4c3)cn2)CC1 [Example 157, Cyclopropyl(4-(5-(3-(1-(3-fluorobenzyl)-1H-pyrazol-4-yl)-1H-pyrrolo[2,3-b]pyridin-5-yl)pyridin-2-yl)piperazin-1-yl)methanone]
< 50 nM	95%	100%	COCCN1CCN(c2ccc(-c3cnc4[nH]cc(-c5cnn(Cc6cccc(F)c6)c5)c4c3)cn2)CC1 [Example 149, 3-(1-(3-fluorobenzyl)-1H-pyrazol-4-yl)-5-(6-(4-(2-methoxyethyl)piperazin-1-yl)pyridin-3-yl)-1H-pyrrolo[2,3-b]pyridine]
	90%	100%	COc1cc(-c2cnc3[nH]cc(-c4cnn(Cc5cccc(F)c5)c4)c3c2)ccc1N1CCN(C[C@H](C)O)CC1 [Example 112, (S)-1-(4-(4-(3-(1-(3-fluorobenzyl)-1H-pyrazol-4-yl)-1H-pyrrolo[2,3-b]pyridin-5-yl)-2-methoxyphenyl)piperazin-1-yl)propan-2-ol]
< 50 nM	100%	100%	C[C@H](O)CN1CCN(c2ccc(-c3cnc4[nH]cc(-c5cnn(Cc6cccc(F)c6)c5)c4c3)cn2)CC1 [Example 138, (S)-1-(4-(5-(3-(1-(3-fluorobenzyl)-1H-pyrazol-4-yl)-1H-pyrrolo[2,3-b]pyridin-5-yl)pyridin-2-yl)piperazin-1-yl)propan-2-ol]
